Data reported in patent US7404975B2, “Moringa crude extracts and their derived fractions with antifungal activities” (Academia Sinica, priority 2006, dated 2008).

System: Epidermophyton floccosum
Assay: Broth dilution anti-fungal susceptibility assay (NCCLS M38-A), MIC
Assay type: cell-based
Experimental: M. oleifera was grown and collected from Taichung, Taiwan. The seeds were de-hulled and the seed kernels dried at 100° C. for 24 h before extraction. The leaves were freshly harvested from M. oleifera trees of at least one-year-old and immediately air-dried. All materials were lyophilized and powdered before experiments. The dermatophytes used in this study were obtained from the Food Industry Research and Development Institute (FIRDI) in Taiwan. Trichophyton rubrum (BCRC 32805), Trichophyton mentagrophytes (BCRC 32066), Epidermophyton floccosum (BCRC 30531) and Microsporum canis (BCRC 30541) were maintained by monthly sub-culturing on Sabouraud dextrose agar (SDA) at 28° C.
The anti-fungal assays followed the protocol (document M38-A) of The National Committee for Clinical Laboratory Standards (NCCLS) in the USA. The protocol is a standard method for broth dilution anti-fungal susceptibility testing of filamentous fungi. 100× of the drug (such as ketoconozole; the MICs of this agent tested on the fungi described above were from 0.125 μg/ml to 12.5 μg/ml ) used for the control experiment. […] The minimal inhibitory concentration (MIC), which is defined as the lowest concentration of an anti-microbial agent preventing the visible growth of a microorganism in an agar or broth dilution susceptibility test (numerical score 0), was determined for each test sample.

Compound: CC(=O)N1CCN(c2ccc(OCC3COC(Cn4ccnc4)(c4ccc(Cl)cc4Cl)O3)cc2)CC1 (stereo not shown) [ketoconozole, ketoconazole]
- MIC (text comparison ketoconozole vs EOF): 0.125 ˜ig/ml
